In brackets after ≈: the same amount, converted by molar mass.
test: Solubility in Cl free phosphate buffer pH 6.8; type: physicochemical; conditions: aqueous buffer; Cl free phosphate buffer (0.067 M) pH 6.8

Row | Structure (SMILES) | solubility
1 | COCC(=O)O[C@@]1(C#Cc2cccc(C)c2)CCC[C@@H]2[C@H]1CCN2C(=O)OC [Example 10, (3aR,4S,7aR)-4-(2-Methoxy-acetoxy)-4-m-tolylethynyl-octahydro-indole-1-carboxylic acid methyl ester] | 47 µg/mL (≈ 122 µM)
2 | COC(=O)N1CC[C@@H]2[C@H]1CCC[C@]2(C#Cc1cccc(C)c1)OC(C)=O [Example 13, (3aR,4S,7aR)-4-Acetoxy-4-m-tolylethynyl-octahydro-indole-1-carboxylic acid methyl ester] | 12 µg/mL (≈ 33.8 µM)
3 | CCCC(=O)O[C@@]1(C#Cc2cccc(C)c2)CCC[C@@H]2[C@H]1CCN2C(=O)OC [Example 15, (3aR,4S,7aR)-4-Butyryloxy-4-m-tolylethynyl-octahydro-indole-1-carboxylic acid methyl ester] | 2 µg/mL (≈ 5.22 µM)
4 | CCCCCC(=O)O[C@@]1(C#Cc2cccc(C)c2)CCC[C@@H]2[C@H]1CCN2C(=O)OC [Example 17, (3aR,4S,7aR)-4-Hexanoyloxy-4-m-tolylethynyl-octahydro-indole-1-carboxylic acid methyl ester] | < 2 µg/mL
5 | CCCCCCCC(=O)O[C@@]1(C#Cc2cccc(C)c2)CCC[C@@H]2[C@H]1CCN2C(=O)OC [Example 18] | < 2 µg/mL
6 | CCCCC(=O)O[C@@]1(C#Cc2cccc(C)c2)CCC[C@@H]2[C@H]1CCN2C(=O)OC [Example 22, (3aR,4S,7aR)-4-Pentanoyloxy-4-m-tolylethynyl-octahydro-indole-1-carboxylic acid methyl ester] | < 2 µg/mL
7 | COC(=O)N1CC[C@@H]2[C@H]1CCC[C@]2(C#Cc1cccc(C)c1)OC(=O)CCC(=O)N1CCCC1 [Example 38, (3aR,4S,7aR)-4-(4-Oxo-4-pyrrolidin-1-yl-butyryloxy)-4-m-tolylethynyl-octahydro-indole-1-carboxylic acid methyl ester] | 27 µg/mL (≈ 57.9 µM)
8 | COC(=O)N1CC[C@@H]2[C@H]1CCC[C@]2(C#Cc1cccc(C)c1)OC(=O)CCCC(N)=O [Example 55, (3aR,4S,7aR)-methyl 4-(5-amino-5-oxopentanoyloxy)-4-(m-tolylethynyl)octahydro-1H-indole-1-carboxylate] | 93 µg/mL (≈ 218 µM)
9 | COC(=O)CCCC(=O)O[C@@]1(C#Cc2cccc(C)c2)CCC[C@@H]2[C@H]1CCN2C(=O)OC [Example 56, (3aR,4S,7aR)-1-(methoxycarbonyl)-4-(m-tolylethynyl)octahydro-1H-indol-4-yl methyl glutarate] | 97 µg/mL (≈ 220 µM)
10 | CCN(CC)C(=O)CCC(=O)O[C@@]1(C#Cc2cccc(C)c2)CCC[C@@H]2[C@H]1CCN2C(=O)OC [Example 57, (3aR,4S,7aR)-methyl 4-(4-(diethylamino)-4-oxobutanoyloxy)-4-(m-tolylethynyl)octahydro-1H-indole-1-carboxylate] | 19 µg/mL (≈ 40.5 µM)
11 | CNC(=O)CCC(=O)O[C@@]1(C#Cc2cccc(C)c2)CCC[C@@H]2[C@H]1CCN2C(=O)OC [Example 58, (3aR,4S,7aR)-methyl 4-(4-(methylamino)-4-oxobutanoyloxy)-4-(m-tolylethynyl)octahydro-1H-indole-1-carboxylate] | 87 µg/mL (≈ 204 µM)
12 | COC(=O)N1CC[C@@H]2[C@H]1CCC[C@]2(C#Cc1cccc(C)c1)OC(=O)CCC(=O)N(C)C [Example 59, (3aR,4S,7aR)-methyl 4-(4-(dimethylamino)-4-oxobutanoyloxy)-4-(m-tolylethynyl)octa hydro-1H-indole-1-carboxylate] | < 2 µg/mL
13 | COC(=O)N1CC[C@@H]2[C@H]1CCC[C@]2(C#Cc1cccc(C)c1)OC(=O)CC(N)=O [Example 60, (3aR,4S,7aR)-methyl 4-(3-amino-3-oxopropanoyloxy)-4-(nm-tolylethynyl)octahydro-1H-indole-1-carboxylate] | 110 µg/mL (≈ 276 µM)
14 | CNC(=O)CC(=O)O[C@@]1(C#Cc2cccc(C)c2)CCC[C@@H]2[C@H]1CCN2C(=O)OC [Example 61, (3aR,4S,7aR)-methyl 4-(3-(methylamino)-3-oxopropanoyloxy)-4-(m-tolylethynyl)octahydro-1H-indole-1-carboxylate] | 11 µg/mL (≈ 26.7 µM)
15 | COC(=O)CCC(=O)O[C@@]1(C#Cc2cccc(C)c2)CCC[C@@H]2[C@H]1CCN2C(=O)OC [Example 62, ((3aR,4S,7aR)-1-(methoxycarbonyl)-4-(m-tolylethynyl)octahydro-1H-indol-4-ylmethyl succinate] | 164 µg/mL
16 | CCCNC(=O)CCC(=O)O[C@@]1(C#Cc2cccc(C)c2)CCC[C@@H]2[C@H]1CCN2C(=O)OC [Example 64, (3aR,4S,7aR)-methyl 4-(4-oxo-4-(propylamino)butanoyloxy)-4-(m-tolylethynyl)octahydro-1H-indole-1-carboxylate] | 33 µg/mL (≈ 72.6 µM)
17 | COC(=O)CC(=O)O[C@@]1(C#Cc2cccc(C)c2)CCC[C@@H]2[C@H]1CCN2C(=O)OC [Example 66, (3aR,4S,7aR)-1-(methoxycarbonyl)-4-(m-tolylethynyl)octahydro-1H-indol-4-yl methyl malonate] | 100 µg/mL (≈ 242 µM)
18 | CCNC(=O)CCC(=O)O[C@@]1(C#Cc2cccc(C)c2)CCC[C@@H]2[C@H]1CCN2C(=O)OC [Example 67, (3aR,4S,7aR)-methyl 4-(4-(ethylamino)-4-oxobutanoyloxy)-4-(m-tolylethynyl)octahydro-1H-indole-1-carboxylate] | 123 µg/mL (≈ 279 µM)
19 | CCNC(=O)CCCC(=O)O[C@@]1(C#Cc2cccc(C)c2)CCC[C@@H]2[C@H]1CCN2C(=O)OC [Example 68, (3aR,4S,7aR)-methyl 4-(5-(ethylamino)-5-oxopentanoyloxy)-4-(m-tolylethynyl)octahydro-1H-indole-1-carboxylate] | 386 µg/mL (≈ 849 µM)
20 | COC(=O)N1CC[C@@H]2[C@H]1CCC[C@]2(C#Cc1cccc(C)c1)OC(=O)CCCC(=O)NC(C)C [Example 69, (3aR,4S,7aR)-methyl 4-(5-(isopropylamino)-5-oxopentanoyloxy)-4-(m-tolylethynyl)octahydro-1H-indole-1-carboxylate] | 28 µg/mL (≈ 59.8 µM)
21 | CCCNC(=O)CCCC(=O)O[C@@]1(C#Cc2cccc(C)c2)CCC[C@@H]2[C@H]1CCN2C(=O)OC [Example 70, (3aR,4S,7aR)-methyl 4-(5-oxo-5-(propylamino)pentanoyloxy)-4-(m-tolylethynyl)octahydro-1H-indole-1-carboxylate] | 32 µg/mL (≈ 68.3 µM)

test: In-vitro clearance in rat liver microsomes (metabolic stability, compound depletion); conditions: not given

Row | Structure (SMILES) | microsomal CLint at 1 μM
22 | COC(=O)N1CC[C@@H]2[C@H]1CCC[C@]2(C#Cc1cccc(C)c1)OC(=O)[C@@H](N)CC(C)C [Example 5, (3aR,4S,7aR)-4-((S)-2-Amino-4-methyl-pentanoyloxy)-4-m-tolylethynyl-octahydro-indole-1-carboxylic acid methyl ester] | 48 µL/min/mg
23 | COC(=O)N1CC[C@@H]2[C@H]1CCC[C@]2(C#Cc1cccc(C)c1)OC(=O)[C@@H](N)CCSC [Example 6, (3aR,4S,7aR)-4-((S)-2-Amino-4-methylsulfanyl-butyryloxy)-4-m-tolylethynyl-octahydro-indole-1-carboxylic acid methyl ester] | 51 µL/min/mg
24 | CC[C@H](N)C(=O)O[C@@]1(C#Cc2cccc(C)c2)CCC[C@@H]2[C@H]1CCN2C(=O)OC [Example 30, (3aR,4S,7aR)-4-((S)-2-Amino-butyryloxy)-4-m-tolylethynyl-octahydro-indole-1-carboxylic acid methyl ester] | 375 µL/min/mg
25 | COC(=O)N1CC[C@@H]2[C@H]1CCC[C@]2(C#Cc1cccc(C)c1)OC(=O)[C@@H](N)Cc1ccccc1 [Example 31, (3aR,4S,7aR)-4-((S)-2-Amino-3-phenyl-propionyloxy)-4-m-tolylethynyl-octahydro-indole-1-carboxylic acid methyl ester] | 262 µL/min/mg
26 | CCC[C@H](N)C(=O)O[C@@]1(C#Cc2cccc(C)c2)CCC[C@@H]2[C@H]1CCN2C(=O)OC [Example 32, (3aR,4S,7aR)-4-((S)-2-Amino-pentanoyloxy)-4-m-tolylethynyl-octahydro-indole-1-carboxylic acid methyl ester] | 420 µL/min/mg
27 | CC[C@H](C)[C@H](N)C(=O)O[C@@]1(C#Cc2cccc(C)c2)CCC[C@@H]2[C@H]1CCN2C(=O)OC [Example 33, (3aR,4S,7aR)-4-((2S,3S)-2-Amino-3-methyl-pentanoyloxy)-4-m-tolylethynyl-octahydro-indole-1-carboxylic acid methyl ester] | 660 µL/min/mg
28 | COC(=O)N1CC[C@@H]2[C@H]1CCC[C@]2(C#Cc1cccc(C)c1)OC(=O)[C@@H](N)CC(C)(C)C [Example 34, (3aR,4S,7aR)-4-((S)-2-Amino-4,4-dimethyl-pentanoyloxy)-4-m-tolylethynyl-octahydro-indole-1-carboxylic acid methyl ester] | 495 µL/min/mg
29 | CN[C@@H](C)C(=O)O[C@@]1(C#Cc2cccc(C)c2)CCC[C@@H]2[C@H]1CCN2C(=O)OC [Example 35, (3aR,4S,7aR)-4-((S)-2-Methylamino-propionyloxy)-4-m-tolylethynyl-octahydro-indole-1-carboxylic acid methyl ester] | 50 µL/min/mg
30 | CN[C@H](C(=O)O[C@@]1(C#Cc2cccc(C)c2)CCC[C@@H]2[C@H]1CCN2C(=O)OC)C(C)C [Example 36, (3aR,4S,7aR)-4-((S)-3-Methyl-2-methylamino-butyryloxy)-4-m-tolylethynyl-octahydro-indole-1-carboxylic acid methyl ester] | 815 µL/min/mg
31 | CC[C@H](C)[C@H](NC)C(=O)O[C@@]1(C#Cc2cccc(C)c2)CCC[C@@H]2[C@H]1CCN2C(=O)OC [Example 37, (3aR,4S,7aR)-4-((2S,3S)-3-Methyl-2-methylamino-pentanoyloxy)-4-m-tolylethynyl-octahydro-indole-1-carboxylic acid methyl ester] | 693 µL/min/mg
32 | COC(=O)N1CC[C@@H]2[C@H]1CCC[C@]2(C#Cc1cccc(C)c1)OC(=O)Cc1ccccc1 [Example 43, (3aR,4S,7aR)-methyl 4-(2-phenylacetoxy)-4-(m-tolylethynyl)octahydro-1H-indole-1-carboxylate] | 36 µL/min/mg
